The values that follow come from US20190110990A1, “LIPOPROTEINS CONTAINING PLATINUM COMPLEXES FOR THE TREATMENT OF CANCER” (UNIVERSITE DE BOURGOGNE, priority 2016, published 2019).

One assay deals with human macrophages. Briefly: ROS production by M2 macrophages (DHE labelling, flow cytometry). It is filed as cell-based. The following applies: 2 hours, final cisplatin concentration 25 μM, basal (CTL) 8.2%. Here is the method: After 7 days of culture in human M-CSF from Miltenyi, Biotec. (Macrophage Colony-Stimulating Factor) at 100 ng/ml, human macrophages were differentiated, from monocytes, into M2 alternative phenotype macrophages (protumoral). […] The production of reactive oxygen species (ROS, representative of an anti-tumour action) by the macrophages was then determined by flow cytometry after labelling with Dihydroethidium (DHE). […] Furthermore, the native HDLs, native LDLs and the LDL-Cis had no effect on ROS production by the macrophages.
The same protocol was repeated so as to compare the effect between the HDL-Cis and the oxidised LDL lipoproteins charged with cisplatin (LDLox+Cis) (see FIG. 2C). […] The oxidised LDLs were obtained by incubating native
LDLs (cholesterol, 1 mM) for 24 hours at 37° C. in the presence of copper sulphate (5 μM). After oxidation, the oxidised LDLs are dialysed in a PBS buffer.
On the technique in general: Flow cytometry measures light scatter and fluorescence of single cells or particles in a stream.

Assay [1] concerns SW480 colorectal cancer lines. Kind of assay: Cell viability of SW480 cells by flow cytometry. It is filed as cell-based. The note with it: SW480, 48 hours, final cisplatin concentration 25 μM. Here is the method: The cell viability was then evaluated by flow cytometry.

For the compound `N.N.[Cl][Pt][Cl]` [non-vectorised cisplatin, Cis-diamine-dichloro-platinum (II)], the “ROS production / macrophage activation” value with human macrophages is recorded as 18.2%. This compound displayed a cancer cell mortality in assay [1] of 41%.
